Data as given in PMC10556625 (Proceedings of the National Academy of Sciences of the …, 2023).

Tested on: HeLa cells

`N#Cc1c(-n2c(Br)c(Br)c3cc(Br)ccc32)[nH]c2c(Br)cc(Br)cc12` [AETX, aetokthonotoxin] was tested, and the “Cytotoxicity EC50 on HeLa cells converted to mass concentration” value was 0.65 mg/L and the EC50 was 1 µM.
